Test results reported in US10647680B2, “Urea compound, preparation method therefor and medical use thereof” (Ancureall Pharmaceutical (Shanghai) Co., Ltd., priority 2016, dated 2020).

What was measured:
[1] = test system: HL-60 (FLT3 wild type); test: In vitro growth inhibition (GI50), HL-60; type: cell-based; details: Homo sapiens, Cell lines of leukemia, read-out: GI 50 HL60 FLT3 (WT)
Excerpt: (§1) 1. Cell Lines and Cell Cultures
(§2) Tumor cell line is an effective cell model for studying the inhibition of tumor cell growth or proliferation in vitro. In the present invention, a representative tumor cell line was selected to determine the cell growth inhibition activity of the present compound. All cell lines used were from ATCC, DSMZ, and the Cell Bank of the Chinese Academy of Sciences. Cell culture conditions and methods were in accordance with the requirements of each cell line. Cells were subcultured in vitro for no more than 3 passages each time, and as required, single-clone purification and identification of cell lines could be carried out.
(§3) The cell culture media used were RPMI1640 (Gibco), MEM (Gibco), McCOY'S5A (Gibco), and IMDM (Gibco). The complete medium was prepared by supplement with 5˜20% fetal calf serum (Gibco), 1% double-antibiotics (10000 units/mL penicillin and 10000 units/mL), 2 mM glutamine or 1 mM sodium pyruvate, respectively.
(§4) The human acute […] monomonocyte leukemia cell line MV4-11 (FLT3 ITD+/+ mutant type, ATCC) was cultured in a complete medium comprising 1×IMDM and 10% FBS. Human acute myeloid leukemia cell line MOLM-13 (FLT3 ITD+/− mutant type, DSMZ), human acute lymphoblastic leukemia cell line RS4; 11 (FLT3 wild type, ATCC), human chronic granulocytic leukemia cell line K562 (FLT3 negative expression, positive expression of BCR-ABL fusion protein, ATCC), human promyelocytic leukemia cell line HL-60 (FLT3 wild type, ATCC), human B lymphoblastic leukemia cell line RAMOS (positive expression of Brutons tyrosine protein kinase, ATCC), human acute myeloid leukemia cell line Kasumi-1 (c-Kit N822K mutant type, ATCC), human acute monocytic leukemia cell line U937 (FLT3 wild-type, ATCC), human acute myeloid leukemia cell line OCI-AML3 (NPMc+ mutant type, ATCC), human acute myeloid leukemia cell line KG-1 (expressing FGFR1OP2-FGFR1 fusion protein, ATCC) were cultured in a complete medium comprising 1×RPMI1640 and 10% FBS, respectively.
(§5) Adherent cells were digested with 0.25% pancreatin-EDTA (Gibco). The suspension cells were collected by centrifugation. The supernatant was discarded and the cell pellet was resuspended and counted. Different cell concentrations (5˜10×10^4 cells/mL) were prepared according to the growth cycle of each cell line and then seeded on a 96-well plate (Corning), 100 μL/well. The cells were incubated overnight at 37° C., 5% CO2. The compounds were added to the cells on the second day with 2 wells in parallel. The final concentration of organic solvent shall not exceed 1%. The cells were continually incubated for 3 to 5 days, and then subjected to MTT assay.
(§6) The compound of the present invention and the control compound were dissolved in DMSO (Sigma) respectively, with the purity of more than 98%. The compound was stored in a concentration of 10 mM at −20° C. and diluted to 2- or 10-fold series prior to use.
(§7) Dojindo CCK8 reagent kit was used as MTT assay. THERMO […] FC meter was used as microplate reader.
(§8) For adherent cells, culture medium was removed and immediately replaced with the fresh prepared medium which contains 10% CCK8 reagent (100 μL/well). For the suspension cells, CCK8 was directly added to 10% of the final concentration. The cells were continually incubated for 1˜4 h. When a dark yellow color could be observed in the solvent control wells, the absorbance value at OD450 nm was measured and the cell growth rate was calculated according to the following formula: Cell Growth Rate (%)=100*(T−T0)/(C−T0) T=optical density of drug treatment cell well—optical density of blank control well; T0=optical density of cell well before drug treatment—optical density of blank control well; C=optical density of cell well of solvent control group—optical density of blank control well. The concentration value of 50% inhibition of cell growth (GI50) was calculated according to the drug concentration and cell growth rate curve. […]

[2] = test system: MV4-11 (FLT3 ITD+/+ mutant type); test: In vitro growth inhibition (GI50), MV4-11; type: cell-based, human; details: Homo sapiens, MV4-11; Cell lines of leukemia; read-out: GI 50 MV4-11 FLT3 (ITD +/+)
Excerpt: as §1, §2, §3, §4
as §5, with “The” for “Adherent cells were digested with 0.25% pancreatin-EDTA (Gibco). The”
(§9) The compound was stored in a concentration of 10 mM at −20° C. and diluted to 2- or 10-fold series prior to use.
(§10) Dojindo CCK8 reagent kit was used as MTT assay. […] FC meter was used as microplate reader.
(§11) For adherent cells, culture medium was removed and immediately replaced with the fresh prepared medium which contains 10% CCK8 reagent (100 μL/well). For the suspension cells, CCK8 was directly added to 10% of the final concentration. The cells were continually incubated for 1˜4 h. […] The experiment was independently repeated 1˜3 times, and subject to biological statistical analysis. 4. Experimental Results
(§12) The initial concentration of the compound was 5,000 nM, then it was serially diluted by 2-fold or 10-fold to 0.01 nM. The GI50 value of each test compound was calculated according to the GI50 assay and calculation method. The experiments were repeated 1 to 3 times, and data were subjected to biological statistical analysis.

[3] = test system: RAMOS (positive expression of Brutons tyrosine protein kinase); test: In vitro growth inhibition (GI50), RAMOS; type: cell-based; details: Homo sapiens, Cell lines of leukemia, read-out: GI 50 Ramos BTK
Excerpt: as §1, §2, §3, §4
as §5, with “The” for “Adherent cells were digested with 0.25% pancreatin-EDTA (Gibco). The”
as §9, §10, §11, §12

[4] = test system: U937 (FLT3 wild-type); test: In vitro growth inhibition (GI50), U937; type: cell-based; details: Homo sapiens, U-937; Cell lines of leukemia; read-out: GI 50 U937 FLT 3(WT)
Excerpt: as §1, §2, §3, §4
as §5, with “The” for “Adherent cells were digested with 0.25% pancreatin-EDTA (Gibco). The”
as §9, §10, §11, §12

[5] = test system: Kasumi-1 (c-Kit N822K mutant type); test: In vitro growth inhibition (GI50), Kasumi-1; type: cell-based; details: Homo sapiens, Cell lines of leukemia, read-out: GI 50 Kasumi-1 Kit (N822K)
Excerpt: as §1, §2, §3, §4, §5, §6, §7, §8

[6] = test system: RS4; 11 (FLT3 wild type); test: In vitro growth inhibition (GI50), RS4; 11; type: cell-based, human; details: Homo sapiens, RS4-11; Cell lines of leukemia; read-out: GI 50 RS4: 11 FLT3 (WT)
Excerpt: as §1, §2, §3, §4
as §5, with “The” for “Adherent cells were digested with 0.25% pancreatin-EDTA (Gibco). The”
as §9, §10, §11, §12

[7] = test system: OCI-AML3 (NPMc+ mutant type); test: In vitro growth inhibition (GI50), OCI-AML3; type: cell-based; details: Homo sapiens, OCI-AML-3; Cell lines of leukemia; read-out: GI 50 OCI- AML3 NPMc+
Excerpt: as §1, §2, §3, §4
as §5, with “The” for “Adherent cells were digested with 0.25% pancreatin-EDTA (Gibco). The”
as §9, §10, §11, §12

[8] = test system: K562 (FLT3 negative expression, positive expression of BCR-ABL fusion protein); test: In vitro growth inhibition (GI50), K562; type: cell-based; details: Homo sapiens, Cell lines of leukemia, read-out: GI 50 K562 BCR-ABL
Excerpt: as §1, §2, §3, §4
as §5, with “The” for “Adherent cells were digested with 0.25% pancreatin-EDTA (Gibco). The”
as §9, §10, §11, §12

[9] = test system: KG-1 (expressing FGFR1OP2-FGFR1 fusion protein); test: In vitro growth inhibition (GI50), KG-1; type: cell-based; details: Homo sapiens; Cell lines of leukemia; read-out: GI 50 KG-1 FGFR1OP 2-FGFR1
Excerpt: as §1, §2, §3, §4
as §5, with “The” for “Adherent cells were digested with 0.25% pancreatin-EDTA (Gibco). The”
as §9, §10, §11, §12

[10] = test system: MOLM-13 (FLT3 ITD+/− mutant type); test: In vitro growth inhibition (GI50), MOLM-13; type: cell-based, human; details: Homo sapiens, MOLM-13; Cell lines of leukemia; read-out: GI 50 MOLM-13 FLT3 (ITD+/−)
Excerpt: as §1, §2, §3, §4
as §5, with “The” for “Adherent cells were digested with 0.25% pancreatin-EDTA (Gibco). The”
as §9, §10, §11, §12

| Compound | GI50 [1] [nM] | GI50 [2] [nM] | GI50 [3] [nM] | GI50 [4] [nM] | GI50 [5] [nM] | GI50 [6] [nM] | GI50 [7] [nM] | GI50 [8] [nM] | GI50 [9] [nM] | GI50 [10] [nM] |
| --- | --- | --- | --- | --- | --- | --- | --- | --- | --- | --- |
| CC(C)(C)c1cc(NC(=O)Nc2ccc(-n3cnc4ccccc43)cc2)no1 [Compound 3, 1-(4-benzimidazol-1-yl-phenyl)-3-(5-tert-butyl-isoxazol-3-yl)-urea] | > 1000 | 0.1 to 1 | > 1000 | > 1000 | > 1000 | > 1000 | > 1000 | > 1000 | > 1000 | 0.1 to 1 |
| CCC(C)Oc1ccc2c(c1)ncn2-c1ccc(NC(=O)Nc2cc(C(C)(C)C)n[nH]2)cc1 (stereo not shown) [Compound 75, 1-[4-(5-sec-butoxy-benzimidazol-1-yl)-phenyl]-3-(5-tert-butyl-2H-pyrazol-3-yl)-urea] | > 1000 | 0.1 to 1 | > 1000 | > 1000 | > 1000 | > 1000 | > 1000 | > 1000 | > 1000 | 0.1 to 1 |
| COCCOc1ccc2ncn(-c3ccc(NC(=O)Nc4cc(C(C)(C)C)on4)cc3)c2c1 [Compound 26, 1-(5-tert-butyl-isoxazol-3-yl)-3-{4-[6-(2-methoxyl-ethoxyl)-benzimidazol-1-yl]-phenyl]urea] | > 1000 | 0.1 to 1 | > 1000 | > 1000 | > 1000 | 100 to 1000 | > 1000 | 100 to 1000 | > 1000 | 0.1 to 1 |
| CC(C)(C)c1cc(NC(=O)Nc2ccc(-n3cnc4ccccc43)cc2Cl)no1 [Compound 41, 1-(4-benzimidazol-1-yl-2-chloro-phenyl)-3-(5-tert-butyl-isoxazol-3-yl)-urea] | > 1000 | 10 to 100 | > 1000 | > 1000 | > 1000 | > 1000 | > 1000 | > 1000 | > 1000 | 10 to 100 |
| COCCOc1ccc2c(c1)ncn2-c1ccc(NC(=O)n2nc(C(C)(C)C)cc2N)cc1 [Compound 120, 5-amino-3-tert-butyl-pyrazol-1-carboxylic acid {4-[5-(2-methoxyl-ethoxyl)-benzimidazol-1-yl]-phenyl}-amide] | > 1000 | 1 to 10 | > 1000 | > 1000 | > 1000 | > 1000 | 100 to 1000 | > 1000 | 100 to 1000 | 1 to 10 |
| CCOCCOc1ccc2c(c1)ncn2-c1ccc(NC(=O)Nc2cc(C(C)(C)C)n[nH]2)cc1 [Compound 78, 1-(5-tert-butyl-2H-pyrazol-3-yl)-3-{4-[5-(2-ethoxyl-ethoxyl)-benzimidazol-1-yl]-phenyl}-urea] | > 1000 | 0.1 to 1 | > 1000 | > 1000 | > 1000 | > 1000 | > 1000 | > 1000 | > 1000 | 0.1 to 1 |
| CN1CCN(CCCOc2ccc3c(c2)ncn3-c2ccc(NC(=O)Nc3cc(C(C)(C)C)on3)cc2)CC1 [Compound 19, 1-(5-tert-butyl-isoxazol-3-yl)-3-(4-{5-[3-(4-methyl-piperazin-1-yl)-propoxyl]-benzimidazol-1-yl}-phenyl)-urea] | 100 to 1000 | 0.1 to 1 | 100 to 1000 | > 1000 | 100 to 1000 | 10 to 100 | > 1000 | 100 to 1000 | 100 to 1000 | 0.1 to 1 |
| COc1cc2ncn(-c3ccc(NC(=O)Nc4cc(C(C)(C)C)n[nH]4)cc3)c2cc1OC [Compound 99, 1-(5-tert-butyl-2H-pyrazol-3-yl)-3-[4-(5,6-dimethoxyl-benzimidazol-1-yl)-phenyl]-urea] | > 1000 | 0.1 to 1 | > 1000 | > 1000 | > 1000 | > 1000 | > 1000 | > 1000 | > 1000 | 0.1 to 1 |
| CN1CCN(CCCOc2ccc3c(c2)ncn3-c2ccc(NC(=O)n3nc(C(C)(C)C)cc3N)cc2)CC1 [Compound 118, 5-amino-3-tert-butyl-pyrazol-1-carboxylic acid (4-{5-[3-(4-methyl-piperazin-1-yl)-propoxyl]-benzimidazol-1-yl}-phenyl)-amide] | > 1000 | 1 to 10 | > 1000 | > 1000 | > 1000 | > 1000 | > 1000 | > 1000 | > 1000 | 1 to 10 |
| CC(C)(C)c1cc(NC(=O)Nc2ccc(-n3cnc4cc(OC(F)(F)F)ccc43)cc2)[nH]n1 [Compound 84, 1-(5-tert-butyl-2H-pyrazol-3-yl)-3-[4-(5-trifluoromethoxy-benzimidazol-1-yl)-phenyl]-urea] | > 1000 | 0.1 to 1 | > 1000 | > 1000 | > 1000 | > 1000 | > 1000 | > 1000 | > 1000 | 0.1 to 1 |
